The source of these data is PMC7615677 (Science translational medicine, 2023).

Data set [1] concerns the target hERG (Homo sapiens, UniProt Q12809). The experiment in a line: In vitro pharmacology panel (Eurofins). Also noted: purchased Eurofins (Cerep/DiscoverX SafetyScreen44 in vitro pharmacology panel). The following applies: human hERG potassium channel, [3H]dofetilide binding assay, probe [3H] Dofetilide, read-out: activity (% of DMSO control). The source says:
Listed values represent the percent change relative to the DMSO control activity. When an IC50 had to be determined, eight different concentrations were included. All values are the mean of assay readout duplicates.
On the technique in general: hERG is a cardiac potassium channel; its block is linked to QT prolongation.

A short description of data set [2]: In vitro cytotoxicity assay. The class given is cell-based. As to conditions: rat, L-6 rat skeletal myoblasts.
Data set [3] deals with T1, CYP2C19 (Homo sapiens, UniProt P33261).
T1 construct: incubation of isoform-specific substrates with human liver microsomes; from tissue; host or cells: human liver microsomes
T1 sequence (P33261 whole entry, canonical isoform): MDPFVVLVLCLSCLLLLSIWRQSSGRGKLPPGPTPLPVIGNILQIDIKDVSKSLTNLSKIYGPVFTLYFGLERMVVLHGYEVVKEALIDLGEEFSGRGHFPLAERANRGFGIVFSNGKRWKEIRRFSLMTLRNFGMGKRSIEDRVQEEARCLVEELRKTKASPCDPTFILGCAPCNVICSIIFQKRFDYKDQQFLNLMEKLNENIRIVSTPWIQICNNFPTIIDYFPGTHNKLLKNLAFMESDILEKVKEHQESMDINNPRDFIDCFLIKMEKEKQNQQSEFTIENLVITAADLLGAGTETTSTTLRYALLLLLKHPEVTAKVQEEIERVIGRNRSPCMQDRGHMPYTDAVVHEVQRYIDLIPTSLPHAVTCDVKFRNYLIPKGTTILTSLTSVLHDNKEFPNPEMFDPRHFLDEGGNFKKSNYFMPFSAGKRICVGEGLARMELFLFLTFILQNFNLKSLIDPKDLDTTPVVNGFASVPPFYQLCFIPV
The experiment in a line: Cytochrome P450 inhibition, human liver microsomes. The class given is in vitro ADME. The procedure: (§1) Direct CYP inhibition studies were conducted using conditions described previously ([43]) following incubation of isoform-specific substrates with human liver microsomes. The formation of known metabolites mediated by a specific CYP isoform was monitored. CYP isoform-specific pathways (and positive control inhibitors) included CYP1A2: phenacetin O-deethylation (furafylline), CYP2B6: bupropion hydroxylation (PPP), CYP2C8: amodiaquine deethylation (quercetin) CYP2C9: tolbutamide methylhydroxylation (sulfaphenazole), CYP2C19: (S)-mephenytoin 4’-hydroxylation (ticlopidine), CYP2D6: dextromethorphan O-demethylation (quinidine), and CYP3A: midazolam 1’-hydroxylation and testosterone 6β-hydroxylation (ketoconazole). […] The organic solvent content was maintained at less than 1% (v/v). NADPH was added to initiate the reaction which was then quenched by the addition of acetonitrile containing internal standard at specified times. Concentrations of the isoform-specific metabolites were quantified by LC-MS (Waters Xevo TQD triple quadrupole MS coupled to a Waters Acquity UPLC system) relative to calibration standards prepared in pre-quenched microsomal matrix.
(§2) Time dependent inhibition was assessed using an “IC50 shift” method based on a previous publication ([44]). […] A shift in the IC50 in the presence of NADPH (relative to the absence) was used as an indication of time dependent inhibition. Reference direct and time-dependent inhibitors were included in the assays.

For data set [4], the target named is T2, CYP2B6 (Homo sapiens, UniProt P20813).
T2 construct: incubation of isoform-specific substrates with human liver microsomes; from tissue; host or cells: human liver microsomes
T2 sequence (P20813 1-491): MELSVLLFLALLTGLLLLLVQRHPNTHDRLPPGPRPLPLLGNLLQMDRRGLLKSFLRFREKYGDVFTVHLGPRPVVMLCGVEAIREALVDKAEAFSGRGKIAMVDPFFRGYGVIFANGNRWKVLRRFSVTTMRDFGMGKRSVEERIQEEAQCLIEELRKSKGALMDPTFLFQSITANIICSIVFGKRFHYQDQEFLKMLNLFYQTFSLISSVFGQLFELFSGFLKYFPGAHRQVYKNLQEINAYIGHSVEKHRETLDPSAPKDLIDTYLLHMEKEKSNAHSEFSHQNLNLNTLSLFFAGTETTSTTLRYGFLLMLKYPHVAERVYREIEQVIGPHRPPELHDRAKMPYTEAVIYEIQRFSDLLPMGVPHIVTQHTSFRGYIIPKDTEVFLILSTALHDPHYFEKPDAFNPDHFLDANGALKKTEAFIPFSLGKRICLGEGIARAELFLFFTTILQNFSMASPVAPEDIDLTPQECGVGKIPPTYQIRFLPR
The experiment in a line: Cytochrome P450 inhibition, human liver microsomes. Type of data set: in vitro ADME. The procedure: as §1, §2

The target in data set [5] is T3, CYP2D6 (Homo sapiens, UniProt P10635).
T3 construct: incubation of isoform-specific substrates with human liver microsomes; from tissue; host or cells: human liver microsomes
T3 sequence (P10635 whole entry, canonical isoform): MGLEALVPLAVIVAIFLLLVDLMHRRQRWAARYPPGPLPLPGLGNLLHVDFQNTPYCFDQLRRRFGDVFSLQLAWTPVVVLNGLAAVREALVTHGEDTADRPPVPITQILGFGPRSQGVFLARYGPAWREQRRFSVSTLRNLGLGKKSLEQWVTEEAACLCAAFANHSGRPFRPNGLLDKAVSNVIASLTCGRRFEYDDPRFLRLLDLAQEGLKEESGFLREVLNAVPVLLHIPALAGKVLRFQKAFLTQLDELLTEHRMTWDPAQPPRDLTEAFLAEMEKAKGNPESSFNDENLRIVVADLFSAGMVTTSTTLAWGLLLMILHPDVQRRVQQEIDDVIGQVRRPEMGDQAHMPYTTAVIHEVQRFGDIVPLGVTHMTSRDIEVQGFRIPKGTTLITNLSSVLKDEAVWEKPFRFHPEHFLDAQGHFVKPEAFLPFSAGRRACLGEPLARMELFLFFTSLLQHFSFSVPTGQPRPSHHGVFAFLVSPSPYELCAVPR
The experiment in a line: Cytochrome P450 inhibition, human liver microsomes. The class given is in vitro ADME. The procedure: as §1, §2

Data set [6] deals with CYP3A4/5. The experiment in a line: Cytochrome P450 inhibition, human liver microsomes. As to conditions: for IC50: read-out: Direct inhibition IC50; for IC50 at 30 min: read-out: Time-dependent inhibition IC50. Type of data set: in vitro ADME. As to the method: as §1, §2
Background: Liver microsomes are vesicles of endoplasmic reticulum, rich in cytochrome P450 enzymes.

In data set [7] the test system is BALB/c 3T3 mouse fibroblasts. The experiment in a line: In vitro 3T3 Neutral Red Uptake (NRU) phototoxicity assay. The class given is cell-based. The following applies: 3T3 NRU. The procedure: Extinction coefficients were 16131 and 8507 L mol^-1 cm^-1, respectively. An in vitro 3T3 Neutral Red Uptake (NRU) phototoxicity assay was then conducted using a 96-well cytotoxicity-based assay that utilizes normal BALB/c 3T3 mouse fibroblasts to measure the concentration-dependent reduction in neutral red uptake by the cells after exposure to test material either in the presence or absence of UVA light. The assay was performed according to OECD (Test No. 432) test guidance ([42]). Duplicate 96-well monolayers of 3T3 fibroblasts were exposed to serial dilutions of test material. One of the plates was exposed to 5 J/cm2 UVA while the other plate was kept in the dark. To assess viability, the NRU by cells exposed to the test chemical in the presence of UVA exposure was compared to the NRU by cells exposed to the test chemical in the absence of UVA exposure. The Photo-Irritation-Factor (PIF) and Mean Photo Effect (MPE) were calculated.

Data set [8] in a line: In vitro metabolism, cryopreserved hepatocytes. The class given is in vitro ADME, human. The procedure:
Cell viability was determined using trypan blue exclusion. The incubation was performed on a plate shaker (Heidolph Titrimax 100, 900 rpm) placed in a humidified incubator (37°C, 7.5% CO2) for 240 min. The reaction was initiated with the addition of compound with samples taken periodically and quenched with the addition of acetonitrile containing internal standards (metolazone and diazepam). Quenched samples were maintained on ice for approximately 20-30 min, centrifuged (for 5 min) and the supernatant analyzed by LC-MS.
In vitro intrinsic clearance (CLint, μL/min/mg or μL/min/10^6 cells) values were calculated from the apparent first order degradation rate constant divided by the microsome concentration or the hepatocyte cell number (10^6 viable cells/mL). In vitro CLint values were then divided by the fraction unbound in the in vitro test system (to give CLint,u) and scaled to in vivo values (mL/min/kg) using published physiological scaling factors ([28]). Blood clearance in each species was then calculated using the well-stirred model of hepatic extraction (equation 2) where Q is the hepatic blood flow and fu,blood is calculated from fu,plasma/B:P: [2] PredictedCLblood=Q x fu,blood x CLint,u/Q+fu,blood x CLint,u
Blood clearance values were converted to plasma clearance by multiplying by the B:P.

The test system of data set [9] is T. brucei brucei (bloodstream form). The experiment in a line: In vitro activity against other kinetoplastid parasites. Type of data set: cell-based. The following applies: Trypanosoma brucei, one range given for T. brucei brucei and T. b. rhodesiense.
Data set [10] is described as follows: in vivo. The following applies: both, Wistar Han, rat, po.
Excerpt: Parameters monitored included morbidity/mortality, clinical signs, body weight, food consumption, hematology and serum clinical chemistry. Main study animals were killed on the day after the last dose and necropsied. Selected organs were weighed. Organ/tissue samples were fixed and preserved at necropsy. Following the macroscopic examination, selected organs/tissues were examined histopathologically and compared to the control group. Satellite animals were sampled for toxicokinetics on days 1 and 14, at various time-points after treatment.
Setting [11] is: with NADPH preincubation, read-out: Time-dependent inhibition IC50.
The mark [12] stands for this setting: without NADPH preincubation, read-out: Time-dependent inhibition IC50.

Molecules are shown by their SMILES. Where two headings read alike, the source gives them in different places. Where only a bound is given, the exact number is not on record here.

By CC50 is commonly meant the concentration that lowers cell viability or growth by half. Lower therefore signals greater toxicity to the cells. A word on the IC50: it is the concentration at which inhibition is half-maximal. For orientation: hepatocyte CLint means a measure of how fast metabolising enzymes remove a compound, apart from limits set by blood flow. Low values mean slow turnover, high ones rapid turnover. A word on the EC50: it is the midpoint of the concentration-response curve. Lower therefore signals an effect from little substance. By NOAEL is commonly meant the highest tested level that showed no adverse finding.

Sequence of hERG (Q12809 whole entry): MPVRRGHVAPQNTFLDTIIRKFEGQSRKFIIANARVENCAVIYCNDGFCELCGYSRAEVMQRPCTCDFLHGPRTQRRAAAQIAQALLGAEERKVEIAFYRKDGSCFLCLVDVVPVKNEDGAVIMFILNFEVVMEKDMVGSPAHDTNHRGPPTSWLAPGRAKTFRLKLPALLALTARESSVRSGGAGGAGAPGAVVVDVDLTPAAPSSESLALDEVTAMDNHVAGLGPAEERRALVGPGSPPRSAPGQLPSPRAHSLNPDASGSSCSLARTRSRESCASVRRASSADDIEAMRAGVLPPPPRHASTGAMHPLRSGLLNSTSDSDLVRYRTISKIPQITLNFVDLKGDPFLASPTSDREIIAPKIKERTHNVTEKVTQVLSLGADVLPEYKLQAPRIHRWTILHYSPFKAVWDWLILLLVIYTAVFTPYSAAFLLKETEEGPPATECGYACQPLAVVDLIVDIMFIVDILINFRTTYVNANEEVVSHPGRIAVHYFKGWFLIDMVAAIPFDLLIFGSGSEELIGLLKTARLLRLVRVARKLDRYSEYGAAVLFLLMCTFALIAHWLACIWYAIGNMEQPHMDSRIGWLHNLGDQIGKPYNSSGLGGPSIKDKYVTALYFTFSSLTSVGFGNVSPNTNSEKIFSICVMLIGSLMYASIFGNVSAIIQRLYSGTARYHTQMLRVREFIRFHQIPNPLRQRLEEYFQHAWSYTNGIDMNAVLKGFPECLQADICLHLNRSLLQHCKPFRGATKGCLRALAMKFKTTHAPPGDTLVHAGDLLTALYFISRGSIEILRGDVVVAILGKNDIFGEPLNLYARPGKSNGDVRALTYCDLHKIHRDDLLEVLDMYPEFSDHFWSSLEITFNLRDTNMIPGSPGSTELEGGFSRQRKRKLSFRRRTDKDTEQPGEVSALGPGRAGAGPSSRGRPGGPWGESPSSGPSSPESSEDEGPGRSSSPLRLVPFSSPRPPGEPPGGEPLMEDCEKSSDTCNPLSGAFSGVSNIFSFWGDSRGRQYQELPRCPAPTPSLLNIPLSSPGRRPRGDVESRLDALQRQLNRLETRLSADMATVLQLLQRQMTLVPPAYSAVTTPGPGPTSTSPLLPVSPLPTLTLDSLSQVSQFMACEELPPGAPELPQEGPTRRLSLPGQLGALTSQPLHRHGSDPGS

`Cc1[nH]c2nc(N)nc(C)c2c1-c1ccc(C#N)c2c1OCO2` [DNDI-6174]: in data set [1], the activity at 10 µM amounted to 94.2%. For the same compound, the CC50 in data set [2] was above 63 µM. Besides, the IC50 was 19 µM in data set [3] (CYP2C19, read-out: Direct inhibition IC50); 7.4 µM in data set [3] (setting [11]); 13.6 µM in data set [3] (setting [12]); above 20 µM in data set [4] (CYP2B6, read-out: Direct inhibition IC50); above 20 µM in data set [4] (setting [11]); above 20 µM in [4] (setting [12]). Further, the half-inhibitory concentration (IC50) in [5] (CYP2D6, read-out: Direct inhibition IC50) was 19 µM; in data set [5] (setting [11]), 0.49 µM; in data set [5] (setting [12]) it was 9.8 µM; in data set [6] (probe midazolam (1'-hydroxylation), CYP3A4/5, midazolam), above 20 µM; in data set [6] (probe testosterone (6β-hydroxylation), CYP3A4/5, testosterone) it was 12.3 µM. Moreover, the half-inhibitory concentration (IC50) at 30 min in data set [6] (probe midazolam (1'-hydroxylation), midazolam, with NADPH preincubation) was 1.9 µM; in data set [6] (probe midazolam (1'-hydroxylation), midazolam, without NADPH preincubation) it was above 20 µM; in data set [6] (probe testosterone (6β-hydroxylation), testosterone, with NADPH preincubation), 0.71 µM; in data set [6] (probe testosterone (6β-hydroxylation), testosterone, without NADPH preincubation), 8 µM. For the same compound, the “risk of being phototoxic, in words” value in [7] was “discarded”. The “Hepatocyte predicted in vivo CLplasma” value in [8] (Human) was 0.31 mL/min/kg. Besides, the hepatocyte CLint at 0.5 µM in [8] (human, cryopreserved hepatocytes) worked out at 1.1 ± 0.27 µL/min/1e6 cells. Also, in [9], the EC50 was in the range of 5 to 20 µM. In data set [10], the NOAEL at 14 days was found to be 80 mg/kg.
